Reference: patent publication US9695155B2, “Herbicidal substituted pyrimidinyloxy benzene compounds” (E. I. DU PONT DE NEMOURS AND COMPANY, priority 2013, dated 2017)

Legend:
oilseed rape = experiment: Test C postemergence; assay type: in vivo, Brassica napus
Procedure, shortened: (§1)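 Greenhouse herbicide screen. Pre: seeded loam/sand, sprayed at planting. Post: 1–4 leaf plants (2–18 cm) in peat-based mix. Formulation: solvent mixture + surfactant, non-phytotoxic. Readout: visual % control vs untreated, 13–15 d; dash = not tested.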

lambsquarters = experiment: Test C postemergence; assay type: in vivo, Chenopodium album
Procedure, shortened: as §1

large (Lg) crabgrass [1] = experiment: Test A preemergence; assay type: in vivo, Digitaria sanguinalis; conditions: 0 to 100 scale where 0 is no effect and 100 is complete control
Procedure, shortened: (§2)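 Scoring: eye-based comparison with untreated controls, 0 for no effect through 100 for complete control, at about day 10. Treatments: directed soil spray preemergence; foliar spray postemergence on 2–10 cm plants at the one- to two-leaf stage. Medium: loam soil with sand.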

soybean = experiment: Test C postemergence; assay type: in vivo, Glycine max
Procedure, shortened: as §1

Heteranthera limosa = experiment: Test B flooded paddy test; assay type: in vivo; conditions: Flood, 250 g ai/ha; 0 to 100 scale where 0 is no effect and 100 is complete control
Procedure, shortened: (§3)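 Visual ratings on a 0 to 100 scale, where 100 means complete control, compared treated plants with controls after 13 to 15 days in a greenhouse. Treatment went into paddy water 3 cm deep over the soil, applied to plants at the 2-leaf stage.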

velvetleaf [2] = experiment: Test A postemergence; assay type: in vivo, Abutilon theophrasti; conditions: 0 to 100 scale where 0 is no effect and 100 is complete control
Procedure, shortened: as §2

velvetleaf [3] = experiment: Test A preemergence; assay type: in vivo, Abutilon theophrasti
Procedure, shortened: as §2

rice = experiment: Test B flooded paddy test; assay type: in vivo, Oryza sativa; conditions: Flood, 250 g ai/ha; 0 to 100 scale where 0 is no effect and 100 is complete control
Procedure, shortened: as §3

pigweed = experiment: Test C postemergence; assay type: in vivo, Amaranthus retroflexus
Procedure, shortened: as §1

morningglory = experiment: Test C postemergence; assay type: in vivo, Ipomoea coccinea
Procedure, shortened: as §1

kochia = experiment: Test C postemergence; assay type: in vivo, Kochia scoparia
Procedure, shortened: as §1

wheat [4] = experiment: Test A postemergence; assay type: in vivo, Triticum aestivum; conditions: 0 to 100 scale where 0 is no effect and 100 is complete control
Procedure, shortened: as §2

giant foxtail = experiment: Test A postemergence; assay type: in vivo, Setaria faberii; conditions: 0 to 100 scale where 0 is no effect and 100 is complete control
Procedure, shortened: as §2

velvetleaf [5] = experiment: Test C postemergence; assay type: in vivo, Abutilon theophrasti; conditions: scale 0 to 100 (0 no effect, 100 complete control)
Procedure, shortened: as §1

wheat [6] = experiment: Test A preemergence; assay type: in vivo, Triticum aestivum
Procedure, shortened: as §2

large (Lg) crabgrass [7] = experiment: Test A postemergence; assay type: in vivo, Digitaria sanguinalis; conditions: 0 to 100 scale where 0 is no effect and 100 is complete control
Procedure, shortened: as §2

[8] = 16 g ai/ha, postemergence, 0 is no effect, 100 is complete control
[9] = 31 g ai/ha, postemergence, visual rating, scale 0 to 100 (0 no effect, 100 complete control), 13 to 15 days
[10] = 125 g ai/ha, postemergence, visual rating, scale 0 to 100 (0 no effect, 100 complete control)
[11] = Postemergence, 62 g ai/ha, scale 0 to 100 (0 no effect, 100 complete control)
[12] = 500 g ai/ha, 0 to 100 scale where 0 is no effect and 100 is complete control

Fc1cnc(Oc2cccc(C(F)F)c2-n2cc(C(F)(F)F)cn2)nc1 [Compound 164]
Plant response rating (0 to 100), Oilseed Rape (oilseed rape; [8]): 10
Oilseed Rape plant response rating (oilseed rape; [9]): 10
Plant response rating, Oilseed Rape (oilseed rape; [10]): 60
Plant response rating, Oilseed Rape (oilseed rape; [11]): 55
Plant response rating (0 to 100), Lambsquarters (lambsquarters; [8]): 15
Lambsquarters plant response rating (lambsquarters; [9]): 25
Plant response rating, Lambsquarters (lambsquarters; [10]): 65
Plant response rating, Lambsquarters (lambsquarters; [11]): 40
Plant response rating, Crabgrass, Large (large (Lg) crabgrass [1]; 125 g ai/ha): 100
Crabgrass, Large plant response rating (large (Lg) crabgrass [1]; 500 g ai/ha): 100
Plant response rating (0 to 100), Soybean (soybean; [8]): 40
Soybean plant response rating (soybean; [9]): 35
Plant response rating, Soybean (soybean; [10]): 65
Plant response rating, Soybean (soybean; [11]): 75
Plant response rating, Ducksalad (Heteranthera limosa): 100
Velvetleaf plant response rating (velvetleaf [2]; 125 g ai/ha): 100
Plant response rating, Velvetleaf (velvetleaf [2]; 500 g ai/ha): 100
Velvetleaf plant response rating (0 to 100 scale) (velvetleaf [3]; 125 g ai/ha): 100
Velvetleaf plant response rating (velvetleaf [3]; [12]): 100
Plant response rating, Rice (rice): 0
Plant response rating (0 to 100), Pigweed (pigweed; [8]): 50
Pigweed plant response rating (pigweed; [9]): 75
Plant response rating, Pigweed (pigweed; [10]): 80
Plant response rating, Pigweed (pigweed; [11]): 75
Plant response rating (0 to 100), Morningglory (morningglory; [8]): 35
Morningglory plant response rating (morningglory; [9]): 35
Plant response rating, Morningglory (morningglory; [10]): 80
Plant response rating, Morningglory (morningglory; [11]): 55
Plant response rating (0 to 100), Kochia (kochia; [8]): 80
Kochia plant response rating (kochia; [9]): 90
Plant response rating, Kochia (kochia; [10]): 95
Plant response rating, Kochia (kochia; [11]): 90
Wheat plant response rating (wheat [4]; 125 g ai/ha): 70
Plant response rating, Wheat (wheat [4]; 500 g ai/ha): 90
Foxtail, Giant plant response rating (giant foxtail; 125 g ai/ha): 90
Plant response rating, Foxtail, Giant (giant foxtail; 500 g ai/ha): 100
Velvetleaf plant response rating (velvetleaf [5]; 31 g ai/ha, postemergence, visual rating, 13 to 15 days): 15
Plant response rating, Velvetleaf (velvetleaf [5]; 125 g ai/ha, postemergence, visual rating): 65
Plant response rating, Velvetleaf (velvetleaf [5]; Postemergence, 62 g ai/ha): 40
Wheat plant response rating (0 to 100 scale) (wheat [6]; 125 g ai/ha): 20
Wheat plant response rating (wheat [6]; [12]): 90
Crabgrass, Large plant response rating (large (Lg) crabgrass [7]; 125 g ai/ha): 80
Plant response rating, Crabgrass, Large (large (Lg) crabgrass [7]; 500 g ai/ha): 100
